The subject of one test is Ad2.2 pre-mRNA. Nature of the test: In vitro splicing (IVS) assay with HeLa nuclear extract, RT-qPCR of spliced product. Type of test: biochemical. The note with it: payload, HELA.2, read-out: qPCR-IVS-ATS GMean IC50 (nM) Ad2.2 HELA.2. The protocol:
2.1 In Vitro Splicing (IVS)
To evaluate payload activity in a cell-free system, an in vitro splicing assay was performed. The payloads were incubated with nuclear extracts and pre-mRNA substrate minigenes.
HeLa nuclear extract preparation: HeLa S3 cell pellets were resuspended in hypotonic buffer (10 mM HEPES pH 7.9, 1.5 mM MgCl2, 10 mM KCl, 0.2 mM PMSF, 0.5 mM DTT) and the suspension was brought up to a total of 5 packed cell volume (PCV). After centrifugation, the supernatant was discarded, and the cells were brought up to 3 PCV with hypotonic buffer and incubated on ice for 10 min. Cells were lysed using a dounce homogenizer and then centrifuged. The supernatant was discarded, and the pellet was resuspended with […] packed nuclear volume (PNV) of low salt buffer (20 mM HEPES pH 7.9, 1.5 mM MgCl2, 20 mM KCl, 0.2 mM EDTA, 25% glycerol, 0.2 mM PMSF, 0.5 mM DTT), followed by 1/2 PNV of high salt buffer (same as low salt buffer except 1.4 M KCl). The nuclei were gently mixed for 30 min before centrifuging. The supernatant (nuclear extract) was then dialyzed into storage buffer (20 mM HEPES pH 7.9, 100 mM KCl, 0.2 mM EDTA, 20% glycerol, 0.2 mM PMSF, 0.5 mM DTT). Protein concentration was determined using NanoDrop 8000 UV-Vis spectrophotometer (ThermoFisher Scientific).
IVS: All Ad2-derived sequences (Pellizzoni et al. (1998) Cell 95(5):615-24) were cloned into pcDNA3.1(+) vector (Promega) using 5′ EcoRI and 3′ Xbal restriction sites. The plasmids were linearized using Xbal and used as DNA templates in in vitro transcription reactions. The FtzΔi intron-less plasmid (Luo and Reed (1999) 96(26):14937-42) was linearized using EcoRI. All RNAs were in vitro transcribed and then purified using MEGAScript T7 (Invitrogen) and MegaClear (Invitrogen) kits, respectively. For splicing reactions using Ad2 variant pre-mRNAs, […] were prepared using 8 μg nuclear extracts prepared from HeLa S3, 2 ng pre-mRNA, 0.2 ng FTZΔi, and varying concentrations of compounds or DMSO. After a 15 min pre-incubation at 30° C., 1 μL splicing activation buffer (0.5 mM ATP, 20 mM creatine phosphate, 1.6 mM MgCl2) was added, and the reactions were incubated for 90 min at 30° C. The reactions were then quenched with 13 μL DMSO, and 25 nL was used for RT-qPCR. RT-qPCR reactions were prepared using TaqMan RNA-to-CT 1-step kit (Life Technologies), RNA from splicing reactions, Ad2 (forward: […]; reverse: […]; probe: CTGTTGGGCTCGCGGTTG) and Ftz (forward: […]; reverse: […]; probe: […]) mRNA primer-probe sets. Prism 7 (Graphpad) was used for non-linear regression curve fitting of the formed spliced product and normalized to the control (DMSO) sample.
A general note: In qPCR the cycle at which signal appears reflects the starting amount.

The next test concerns Ad2.1. The test is described as follows: In vitro splicing (IVS) assay, qPCR-IVS-ATS, Ad2.1 substrate, HELA.2. Type of test: biochemical. The note with it: payload, read-out: qPCR-IVS-ATS GMean IC50 (nM) Ad2.1 HELA.2.
In a further test the test system is THP1.1. Nature of the test: Herboxidiene splicing modulator cell potency, CTGlo-ATS, THP1.1, 72 h. To be noted: payload; for GI50: THP1.1, read-out: CTGIo-ATS GMean GI50 (nM) 72 h THP1.1. Type of test: cell-based.
The next test concerns NCIH1650.1. The test is described as follows: Herboxidiene splicing modulator cell potency, CTGlo-ATS, NCIH1650.1, 72 h. Type of test: cell-based. The note with it: payload; for GI50: NCIH1650.1, read-out: CTGIo-ATS GMean GI50 (nM) 72 h NCIH1650.1.
Test [1] relates to SLC25A19 mature transcript. Nature of the test: In-cell splicing PD assay, NCI-N87. Type of test: cell-based. The note with it: Homo sapiens, NCI-N87, 6 h. The protocol: (§1) 4.1.2 In-Cell Splicing PD Assay
(§2) Splicing of the SLC25A19 mature transcript was also examined in HCC1954 and NCI-N87 cells treated with increasing concentrations of exemplary payload compounds.
(§3) HCC1954 or NCI-N87 cells (ATCC) were plated in RPM1+10% FBS media (ATCC) at 1000 cells per well at 20 μL per well. Cells were treated with compounds in a 4-fold dilution dose-response. After 6 hours, cells were PBS washed and lysed with 30 μL of CL buffer (IgePal CA-630, 5M NaCl, 1M Tris HCl 1M pH 7.4 in water) containing 25 μL/mL of RNAsin (Promega) and incubated for 20 min at RT on a rocker. Resulting mixture (1 μL) was used to assess splicing modulation in a Taqman Fast Virus 1-Step MasterMix (Applied Biosystems) reverse transcription PCR reaction with the following Taqman primers according to the manufacturer's recommendations: SLC25A19 (Invitrogen, Hs00222265_m1); RPLPO (Invitrogen, Hs99999902_m1).

Test [2] concerns SLC25A19 mature transcript. Nature of the test: In-cell splicing PD assay, HCC1954. To be noted: Homo sapiens, HCC1954, 6 h. Type of test: cell-based. Here is the method: as §1, §2, §3
For test [3], the system named is NCI-N87 gastric cancer cells. Nature of the test: Payload cell viability dose response (CellTiter-Glo 2.0), NCI-N87 (Example 4). Type of test: cell-based, human. The note with it: for GI50: Homo sapiens. Here is the method:
(§4) Cell viability dose response was determined for exemplary payload compounds in HER2-amplified HCC1954 breast cancer cells and NCI-N87 gastric cancer cells.
(§5) HCC1954 (American Type Culture Collection (ATCC)) breast ductal carcinoma or NCI-N87 (ATCC) gastric carcinoma cells were plated at 500 cells/well in flat bottom 384-well tissue culture plates (Corning) in a total volume of 30 μL tissue culture medium supplemented with 10% fetal bovine serum (ThermoFisher Scientific). Cells were treated with a 4-fold serial dilution of compound from 10000 nM to 0.01 nM. Each concentration was tested in triplicate. At the time of treatment, a plate of untreated cells was evaluated using CellTiter-Glo® 2.0 Luminescent Cell Viability Assay according to the manufacturer's recommendations (Promega; #G9241). CellTiter-Glo® 2.0 reagent was added to the medium, incubated, and assayed on an EnVision Multilabel Reader (PerkinElmer). Values represent time zero (T0). The number of viable cells following 72 (T72) or 144 hours (T144) of compound treatment was also determined using the CellTiter-Glo®2.0 Luminescent Cell Viability Assay. Using the luminescence value at time zero (T0), DMSO control growth (C), and test growth in the presence of compound (T72 or T144), the percentage growth was calculated at each of the compound concentrations levels. Percentage growth inhibition was calculated as (e.g.): [(T144−T0)/(C−T0)]×100 for concentrations for which T144>/=T0 or [(T144−T0)/T0]×100 for concentrations for which T144<T0. The dose response curve plots were generated using Prism 8 (Graphpad) and fit using nonlinear regression analysis and the log(inhibitor) versus response-variable slope (four parameters).

The subject of test [4] is HCC1954 breast cancer cells. The test is described as follows: Payload cell viability dose response (CellTiter-Glo 2.0), HCC1954 (Example 4). The note with it: for GI50: Homo sapiens. Type of test: cell-based, human. Here is the method: as §4, §5
For orientation: ATP-based viability assays read luminescence as a measure of living cells.

Where two headings read alike, the source gives them in different places.

The term IC50 denotes the concentration at which inhibition is half-maximal. One may read the GI50 as the concentration that inhibits growth by half. On to `CNC1CCN(C(=O)O[C@@H]2C[C@H](CC(=O)O)O[C@H](/C(C)=C/C=C/[C@@H](C)C[C@@]3(C)O[C@@H]3[C@H](C)[C@@H](OC)[C@@H](C)O)[C@H]2C)C1` (stereo partly drawn) [Compound H3, 2-((2R,4R,5S,6S)-6-((S,2E,4E)-7-((2R,3R)-3-((2R,3R,4R)-4-hydroxy-3-methoxypentan-2-yl)-2-methyloxiran-2-yl)-6-methylhepta-2,4-dien-2-yl)-5-methyl-4-((3-(methylamino)pyrrolidine-1-carbonyl)oxy)tetrahydro-2H-pyran-2-yl)acetic acid], for which, in the test with Ad2.2 pre-mRNA, the half-inhibitory concentration (IC50) was 35.2 nM. Further, the IC50 in the test with Ad2.1 turned out to be 562 nM. In the test on THP1.1, the “CTGIo-ATS GMean LD50 (nM) 72 h THP1.1” value is listed as 478.332 nM, the “CTGIo-ATS Mean MinResponse % 72 h THP1.1” value is listed as −92.943% and the 50% growth inhibitory concentration (GI50) worked out at 54.6 nM. In the test on NCIH1650.1, the “CTGIo-ATS GMean LD50 (nM) 72 h NCIH1650.1” value is reported as more than 10000 nM, the “CTGIo-ATS Mean MinResponse % 72 h NCIH1650.1” value is given as 19.182% and the GI50 worked out at 115 nM.

On to `CNC1CCN(C(=O)OCCCCCC(=O)NC[C@H]2CC[C@H](C)[C@@H](/C(C)=C/C=C/[C@@H](C)C[C@@]3(C)O[C@@H]3[C@H](C)[C@@H](OC)[C@@H](C)O)O2)C1` (stereo partly drawn) [Compound H7, 6-((((2R,5S,6S)-6-((S,2E,4E)-7-((2R,3R)-3-((2R,3R,4R)-4-hydroxy-3-methoxypentan-2-yl)-2-methyloxiran-2-yl)-6-methylhepta-2,4-dien-2-yl)-5-methyltetrahydro-2H-pyran-2-yl)methyl)amino)-6-oxohexyl 3-(methylamino)pyrrolidine-1-carboxylate], for which, in the test on Ad2.2 pre-mRNA, the 50% inhibitory concentration (IC50) came out at 12.1 nM. Besides, in the test with Ad2.1, the IC50 worked out at 14.5 nM. Besides, in the test with THP1.1, the “CTGIo-ATS GMean LD50 (nM) 72 h THP1.1” value was determined as 6.756 nM, the “CTGIo-ATS Mean MinResponse % 72 h THP1.1” value is listed as −99.328% and the concentration for 50% growth inhibition (GI50) came out at 0.65 nM. For the same compound, in the test with NCIH1650.1, the “CTGIo-ATS GMean LD50 (nM) 72 h NCIH1650.1” value is given as more than 10000 nM, the “CTGIo-ATS Mean MinResponse % 72 h NCIH1650.1” value worked out at 5.754% and the GI50 was 0.772 nM.

Take `CO[C@H]([C@@H](C)[C@H]1O[C@]1(C)C[C@H](C)/C=C/C=C(\C)[C@H]1O[C@@H](CNC(=O)CCOCCOC(=O)N2CCNCC2)CC[C@@H]1C)[C@@H](C)O` [Compound H8, 2-(3-((((2R,5S,6S)-6-((S,2E,4E)-7-((2R,3R)-3-((2R,3R,4R)-4-hydroxy-3-methoxypentan-2-yl)-2-methyloxiran-2-yl)-6-methylhepta-2,4-dien-2-yl)-5-methyltetrahydro-2H-pyran-2-yl)methyl)amino)-3-oxopropoxy)ethyl piperazine-1-carboxylate]: in the test on Ad2.2 pre-mRNA, the half-inhibitory concentration (IC50) was found to be 12.9 nM. Further, the IC50 with Ad2.1 came out at 12.9 nM. In addition, in the test on THP1.1, the “CTGIo-ATS GMean LD50 (nM) 72 h THP1.1” value was determined as 11.851 nM, the “CTGIo-ATS Mean MinResponse % 72 h THP1.1” value is recorded as −102.030% and the GI50 came to 1.22 nM. Further, in the test on NCIH1650.1, the “CTGIo-ATS GMean LD50 (nM) 72 h NCIH1650.1” value is more than 10000 nM, the “CTGIo-ATS Mean MinResponse % 72 h NCIH1650.1” value was 17.053% and the GI50 was 1.1 nM.

With `CNC1CCN(C(=O)OCCOCCC(=O)NC[C@H]2CC[C@H](C)[C@@H](/C(C)=C/C=C/[C@@H](C)C[C@@]3(C)O[C@@H]3[C@H](C)[C@@H](OC)[C@@H](C)O)O2)C1` (stereo partly drawn) [Compound H10, 2-(3-((((2R,5S,6S)-6-((S,2E,4E)-7-((2R,3R)-3-((2R,3R,4R)-4-hydroxy-3-methoxypentan-2-yl)-2-methyloxiran-2-yl)-6-methylhepta-2,4-dien-2-yl)-5-methyltetrahydro-2H-pyran-2-yl)methyl)amino)-3-oxopropoxy)ethyl 3-(methylamino)pyrrolidine-1-carboxylate], in the test with Ad2.2 pre-mRNA, the IC50 is 16.5 nM. For the same compound, in the test with Ad2.1, the half-inhibitory concentration (IC50) was 21.7 nM. Also, in the test on THP1.1, the “CTGIo-ATS GMean LD50 (nM) 72 h THP1.1” value came to 21.021 nM, the “CTGIo-ATS Mean MinResponse % 72 h THP1.1” value was −98.789% and the GI50 was 2.06 nM. In the test on NCIH1650.1, the “CTGIo-ATS GMean LD50 (nM) 72 h NCIH1650.1” value is on record as more than 10000 nM, the “CTGIo-ATS Mean MinResponse % 72 h NCIH1650.1” value stood at 9.194% and the GI50 worked out at 3.04 nM.

For the compound `CO[C@H]([C@@H](C)[C@H]1O[C@]1(C)C[C@H](C)/C=C/C=C(\C)[C@H]1O[C@@H](CC(=O)N[C@@H](CCOC(=O)N2CCN(C)CC2)C(=O)O)CC[C@@H]1C)[C@@H](C)O` [Compound H14], the IC50 stood at 962 nM in test [1] and 1350 nM in test [2]. Moreover, the concentration for 50% growth inhibition (GI50) came to 415 nM in test [3] (NCI-N87, 72 h, read-out: CTG 72 h GI50); 730 nM in test [3] (NCI-N87, 144 h, read-out: CTG 144 h GI50); 626 nM in test [4] (HCC1954, 72 h, read-out: CTG 72 h GI50); 682 nM in test [4] (HCC1954, 144 h, read-out: CTG 144 h GI50). Also, the “CTG 72 h LD50” value in test [3] (NCI-N87, 72 h) is more than 10 µM; in test [4] (HCC1954, 72 h) it was more than 10 µM. In addition, the “CTG 72 h Rmin” value in test [3] (NCI-N87, 72 h) is recorded as −2.467%; in test [4] (HCC1954, 72 h) it was −42.359%. Moreover, the “CTG 144 h LD50” value came to 7.944263 µM in test [3] (NCI-N87, 144 h) and 2055.923 nM in test [4] (HCC1954, 144 h). In addition, the “CTG 144 h Rmin” value in test [3] (NCI-N87, 144 h) is reported as −63.41%. The “CTG 144 h Rm in” value in test [4] (HCC1954, 144 h) is recorded as −95.522%.
